This is an account of results in patent US20070167408A1, “NOVEL ALKYL PHOSPHOLIPID DERIVATIVES WITH REDUCED CYTOTOXICITY AND USES THEREOF” (ZENTARIS GmbH, priority 2005, published 2007).

Each structure is given as a SMILES string. ≈ marks a conversion by molar mass, not a printed value.

For test [1], the system named is RKOp21 (human colon adenocarcinoma) cells. In words: XTT cytotoxicity assay, RKOp21 cells. It is filed as cell-based. Particulars: Homo sapiens; 31.6 μM, second set of experiments; read-out: RKOp21 % INH [31.6 μM]. The essentials: (§1)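 Cells recovered 24 h after plating, then exposed to compounds for 48 h at 37 °C; one set used 10 semi-log concentrations from 100 μM, another 31.6 μM final for PC3 and RKOp21. XTT-PMS added for 3 h, formazan absorbance at 490 nm versus untreated cells; IC50 from inhibition curves.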

Test [2] deals with PC3 (human prostate carcinoma) cells. The test can be described thus: XTT cytotoxicity assay, PC3 cells. It counts as cell-based. To be noted: Homo sapiens, PC-3; 31.6 μM, second set of experiments; read-out: PC3 % INH [31.6 μM]. An outline of the steps:
as §1
(Tetrazolium assays rely on reduction of a dye to a coloured formazan, in cell work by metabolically active cells.)

In test [3] the test system is SKOV-3 (human ovary adenocarcinoma) cells. In words: XTT cytotoxicity assay, SKOV-3 cells. It counts as cell-based. Particulars: Homo sapiens, SK-OV-3, second set of experiments, read-out: SKOV-3 % INH [100 μM]. The essentials:
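Exponentially growing SKOV-3 cells recovered 24 h after plating, then received freshly diluted compounds for 2 days of continuous exposure. Viability was read by formazan formation after 3 h with XTT-PMS at 37° C., 5% CO2. IC50 came from inhibition curves.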

In test [4] the test system is PC3, RKOp21 and SKOV-3 cell lines. In words: XTT cytotoxicity assay, mean over all three cell lines. It is filed as cell-based, human. To be noted: mean value over all three cell lines. The essentials: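 Cells had 2 days of continuous compound exposure, then 3 h with XTT-PMS at 37 °C, 5% CO2 to form formazan from living cells. The value is % inhibition of cell growth, averaged over PC3, RKOp21 and SKOV-3.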

The subject of test [5] is Streptococcus pneumoniae DSM 20566 (ATCC 33400). The test can be described thus: Anti-bacterial bouillon microdilution assay (MIC), bacterium A. To be noted: Streptococcus pneumoniae DSM 20566, 24 h. It is filed as cell-based. As for the experimental part:
(§2) Selected compounds of the invention were tested in a bouillon microdilution assay method according to the DIN 58940 (www.din.de) guidelines for determination of susceptibility of bacterial strains with regard to cell growth inhibition. The assay method quantifies bacterial cell growth which corresponds to the turbidity of the liquid culture medium by photometric measurement carried out at 595 nm.
(§3) The method of MIC determination was performed according to DIN 58940-5. The volumina were adapted according to the microdilution method as described in DIN 58940-7 guideline.
(§4) Dependent on water solubility, compounds of the invention were dissolved either in water or ethanol in a concentration of 10 mg/ml. Subsequently, the stock was further diluted in water to a concentration of 512 μg/ml. The following serial dilutions (factor 2) were performed in water resulting in the following […] testing concentrations: 256 μg/ml, 128 μg/ml, 64 μg/ml, 32 μg/ml, 16 μg/ml, 8 μg/ml, 4 μg/ml, 2 μg/ml, 1 μg/ml, 0.5 μg/ml, 0.25 μg/ml and 0.125 μg/ml. Diluted compounds of the invention were transferred in 100 μl volume to the microtiter plate wells.
(§5) Pre-cultures of bacteria were grown in appropriate liquid media (refer to ATCC webpage, www.atcc.org) and afterwards were inoculated in corresponding liquid medium. 100 μl of the inoculums [adjusted to an amount of app. 1×10^6 microorganisms per ml (range of 10^5-10^8 microorganisms per ml)] were added to each of the testing compound concentrations and cultivated under the appropriate conditions.
(§6) Before and after incubation, bacterial growth was determined by photometric analysis against a positive control containing growing bacteria without compound and a sterile/negative control containing only the medium.
A general note: Dilution methods test growth across graded concentrations, often in twofold steps.

Test [6] deals with Streptococcus pneumoniae DSM 11967 (ATCC 49619). The test can be described thus: Anti-bacterial bouillon microdilution assay (MIC), bacterium B. It counts as cell-based. To be noted: Streptococcus pneumoniae DSM 11967, 24 h. As for the experimental part:
as §2, §3, §4, §5, §6

In test [7] the test system is Moraxella catarrhalis DMS 11994 (ATCC 43617). The test can be described thus: Anti-bacterial bouillon microdilution assay (MIC), bacterium D. It is filed as cell-based. Particulars: ATCC43617, 24 h. An outline of the steps:
(§7)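 Broth microdilution MIC per DIN 58940-5/-7. Twofold compound dilutions in water spanned 256 to 0.125 μg/ml in the test concentration series, with inocula of about 1×10^6 organisms/ml in strain-appropriate media. Growth was read as turbidity at 595 nm before and after incubation, against growth and sterile controls.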

Test [8] has as its system Enterococcus faecium DSM 20477 (ATCC 19434). In words: Anti-bacterial bouillon microdilution assay (MIC), bacterium C. It counts as cell-based. Particulars: Enterococcus faecium DSM 20477, 24 h. The method, then: as §2, §3
Dependent on water solubility, compounds of the invention were dissolved either in water or ethanol in a concentration of 10 mg/ml. Subsequently, the stock was further diluted in water to a concentration of 512 μg/ml. The following serial dilutions (factor 2) were performed in water resulting in the following […] testing concentrations: 256 μg/ml, 128 μg/ml, 64 μg/ml, 32 μg/ml, 16 μg/ml, 8 μg/ml, 4 μg/ml, 2 μg/ml, 1 μg/ml, 0.5 μg/ml, 0.25 μg/ml and 0.125 μg/ml. Diluted compounds of the invention were transferred in 100 μl volume to the microtiter plate wells. […]
as §6

In test [9] the test system is Bacteroides fragilis DSM 2151 (ATCC 25285). In words: Anti-bacterial bouillon microdilution assay (MIC), bacterium E. It is filed as cell-based. To be noted: anaerob, 24 h. The essentials:
as §7

In test [10] the test system is Leishmaniasis. Particulars: clinical phase III trials, parenteral; cited from earlier work.

The MIC is the lowest concentration found to suppress growth. Regarding `CCCCCCCCCCCCCCCCOP(=O)([O-])OCC[N+]1(C)CCCCCC1` [Compound 89, Phosphoric acid hexadecyl ester 2-(1-methyl-azepan-1-yl)-ethyl ester], the inhibition at 31.6 µM in [1] is 11.3%; in test [2], 50.6%. Also, in test [3], the inhibition at 100 µM was 26.1%. The “Mean % INH” value in test [4] was 29.3%. For the same molecule, the values for the minimal inhibitory concentration (MIC) in test [5], in [6] and in test [7] were 8 µg/mL (≈ 17.3 µM), 4 µg/mL (≈ 8.66 µM) and 4 µg/mL (≈ 8.66 µM), respectively.

On to `CCCCCCCCCCCCCCCCOP(=O)([O-])OCC[N+](C)(C)c1ccccc1` [Compound 107, Phosphoric acid hexadecyl ester 2-(N-phenyl-N,N-dimethyl-amino)-ethyl ester], for which the MIC in [5] came to 8 µg/mL (≈ 17 µM); in [6], 4 µg/mL (≈ 8.52 µM); in test [8], 8 µg/mL (≈ 17 µM); in test [7] it was 4 µg/mL (≈ 8.52 µM); in test [9] it was 64 µg/mL (≈ 136 µM).

`NC[C@@H]1O[C@H](O[C@H]2[C@@H](O)[C@H](O[C@@H]3[C@@H](O)[C@H](N)C[C@H](N)[C@H]3O[C@H]3O[C@H](CO)[C@@H](O)[C@H](O)[C@H]3N)O[C@@H]2CO)[C@H](N)[C@@H](O)[C@@H]1O` [paromomycin, O-2-amino-2-deoxy-alpha-D-glucopyranosyl-(1-4)-O-[O-2,6-diamino-2,6-dideoxy-beta-L-idopyranosyl-(1-3)-beta-D-ribofuranosyl-(1-5)]-2-deoxy-D-streptamine]: the “efficient in % of the cases” value in test [10] is reported as 95%.
